The source of these data is patent US11505548B2, “Heterocyclic compounds and their use for treatment of helminthic infections and diseases” (Celgene Corporation, priority 2019, dated 2022).

Like-named read-outs stand apart in the source and are kept apart here.

For the test, the system named is Onchocerca gutturosa Adult Male Worms. In words: Onchocerciasis in vitro screening model, worm motility score. The settings on record: read-out: O. gutturosa activity level (IC50 or MED). The class given is cell-based.
Where [1] appears, read: Onchocerca gutturosa, Table 1 O. gutturosa, levels A/B/C, motility or MTT readout not specified.
The mark [2] stands for this setting: in vitro, Onchocerca gutturosa adult male worms, class A/B/C.

`Cc1cccnc1Nc1nc(-c2ccc(S(=O)(=O)N(C)C)cn2)ns1` [Compound 31, N,N-dimethyl-6-(5-(3-methylpyridin-2-ylamino)-1,2,4-thiadiazol-3-yl)pyridine-3-sulfonamide]: the IC50 under setting [1] was in the range of 500 to 5000 nM.

As to `CN1Cc2ccnc(-c3nsc(Nc4ncccc4N(C)C)n3)c2C1` [Compound 163, N3,N3-dimethyl-N2-(3-(2-methyl-2,3-dihydro-1H-pyrrolo[3,4-c]pyridin-4-yl)-1,2,4-thia-diazol-5-yl)pyridine-2,3-diamine], the IC50 under setting [1] was less than 200 nM.

`CC(C)Oc1ccc(-c2nsc(Nc3ncccc3N3CCCC3=O)n2)nc1` [Compound 178, 1-(2-(3-(5-isopropoxy-pyridin-2-yl)-1,2,4-thiadiazol-5-ylamino)pyridin-3-yl)pyrrolidin-2-one]: the IC50 under setting [1] lay within 500 to 5000 nM.

For `Cc1cccnc1Nc1nc(-c2ccc(C(=O)N3CCCC3)cn2)ns1` [Compound 61, (6-(5-(3-methyl-pyridin-2-ylamino)-1,2,4-thiadiazol-3-yl)pyridin-3-yl) (pyrrolidin-1-yl)methanone], the half-maximal inhibitory concentration (IC50) under setting [1] lay within 200 to 500 nM.

Take `CC(=O)N(C)c1cccnc1Nc1nc(-c2ccc(OC(C)C)cn2)ns1` [Compound 157, N-(2-(3-(5-isopropoxy-pyridin-2-yl)-1,2,4-thiadiazol-5-ylamino)pyridin-3-yl)-N-methyl-acetamide]: the IC50 under setting [1] was in the range of 500 to 5000 nM.

`Cc1cccnc1Nc1nc(-c2cc(OC(C)C)c(C(F)(F)F)cn2)ns1` [Compound 152, 3-(4-isoprop-oxy-5-(trifluoromethyl)pyridin-2-yl)-N-(3-methylpyridin-2-yl)-1,2,4-thia-diazol-5-amine]: the IC50 under setting [1] is 200 to 500 nM.

With `CC(C)OC(=O)c1cccnc1Nc1nc(-c2ccc(OC(C)C)cn2)ns1` [Compound 327, isopropyl 2-(3-(5-isopropoxypyridin-2-yl)-1,2,4-thiadiazol-5-ylamino)nicotinate], the concentration for half-maximal inhibition (IC50) under setting [2] fell in the range of 500 to 5000 nM.

As to `c1ccc(-c2nsc(Nc3ccc(N4CCCCC4)cn3)n2)nc1` [Cmpd 6, N-(5-(piperidin-1-yl)pyridin-2-yl)-3-(pyridin-2-yl)-1,2,4-thiadiazol-5-amine], under setting [1], the 50% inhibitory concentration (IC50) is less than 200 nM.

For `FC(F)(F)c1ccnc(-c2nsc(Nc3cc(N4CCCC4)ccn3)n2)c1` [Compound 99, N-(4-(pyrrolidin-1-yl)pyridin-2-yl)-3-(4-(trifluoromethyl)pyridin-2-yl)-1,2,4-thiadiazol-5-amine], under setting [1], the IC50 is 500 to 5000 nM.

Consider `CN(C)c1cccnc1Nc1nc(-c2ccc(OCC3CC3)cn2)ns1` [Compound 118, N2-(3-(5-(cyclopropyl-methoxy)pyridin-2-yl)-1,2,4-thiadiazol-5-yl)-N3,N3-dimethyl-pyridine-2,3-diamine], for which the IC50 under setting [1] was less than 200 nM.

Take `Cc1cccnc1Nc1nc(-c2ccc(C(=O)N3CCN(C)CC3)cn2)ns1` [Compound 57, (4-methyl-piperazin-1-yl)(6-(5-(3-methyl-pyridin-2-ylamino)-1,2,4-thiadiazol-3-yl)pyridin-3-yl) methanone]: the IC50 under setting [1] was in the range of 500 to 5000 nM.

Regarding `COc1ccnc(-c2nsc(Nc3ccc(OC(C)C)cn3)n2)c1` [Compound 184, N-(5-isoprop-oxypyridin-2-yl)-3-(4-methoxy-pyridin-2-yl)-1,2,4-thiadiazol-5-amine], the IC50 under setting [1] is less than 200 nM.

As for `CN(C)c1cccnc1Nc1nc(-c2ccc(OCC(F)(F)F)cn2)ns1` [Compound 101, N3,N3-dimethyl-N2-(3-(5-(2,2,2-trifluoroethoxy)pyridin-2-yl)-1,2,4-thiadiazol-5-yl)pyridine-2,3-diamine], under setting [1], the half-maximal inhibitory concentration (IC50) was in the range of 200 to 500 nM.

Regarding `CNc1cccnc1Nc1nc(-c2ccc(OC(C)C)cn2)ns1` [Compound 108, N2-(3-(5-isopropoxypyridin-2-yl)-1,2,4-thiadiazol-5-yl)-N3-methyl-pyridine-2,3-diamine], under setting [1], the IC50 lay within 200 to 500 nM.

Take `Cc1cccnc1Nc1nc(-c2ccc(C3CCN(C)CC3)cn2)ns1` [Compound 48, 3-(5-(1-methyl-piperidin-4-yl)pyridin-2-yl)-N-(3-methylpyridin-2-yl)-1,2,4-thiadiazol-5-amine]: under setting [1], the 50% inhibitory concentration (IC50) fell in the range of 500 to 5000 nM.

As to `CC(C)Oc1cccnc1-c1nc(Nc2cc(C(F)(F)F)c(C(C)C)cn2)nn1C` [Compound 148, N-(5-(3-isoprop-oxypyridin-2-yl)-1-methyl-1H-1,2,4-triazol-3-yl)-5-isopropyl-4-(trifluoromethyl) pyridin-2-amine], the concentration for half-maximal inhibition (IC50) under setting [1] was 500 to 5000 nM.

In the case of `COc1cccnc1Nc1nc(-c2cc(C(F)(F)F)c(OC3CC3)cn2)ns1` [Compound 134, 3-(5-cyclo-propoxy-4-(trifluoromethyl)pyridin-2-yl)-N-(3-methoxy-pyridin-2-yl)-1,2,4-thiadiazol-5-amine], the IC50 under setting [1] lay within 500 to 5000 nM.

Take `CC(C)Oc1ccc(-c2nsc(Nc3ncc(C(=O)NC4CC(F)(F)C4)cc3C(C)C)n2)nc1` [Compound 195, N-(3,3-difluoro-cyclobutyl)-6-(3-(5-isoprop-oxypyridin-2-yl)-1,2,4-thiadiazol-5-ylamino)-5-isopropyl-nicotinamide]: under setting [1], the concentration for half-maximal inhibition (IC50) was less than 200 nM.

Regarding `Cc1cccnc1Nc1nc(-c2cc(C#N)ccn2)ns1` [Compound 40, 2-(5-(3-methyl-pyridin-2-ylamino)-1,2,4-thiadiazol-3-yl)isonicotino-nitrile], the IC50 under setting [1] lay within 500 to 5000 nM.

With `CC(C)c1cccnc1Nc1nc(-c2ccc(F)cn2)ns1` [Compound 128, 3-(5-fluoro-pyridin-2-yl)-N-(3-isopropyl-pyridin-2-yl)-1,2,4-thiadiazol-5-amine], the IC50 under setting [1] is 500 to 5000 nM.

Turning to `COc1ccc(-c2nsc(Nc3cc(OC4CCOCC4)ccn3)n2)nc1` [Compound 46, 3-(5-methoxy-pyridin-2-yl)-N-(4-(tetrahydro-2H-pyran-4-yloxy)pyridin-2-yl)-1,2,4-thiadiazol-5-amine], under setting [1], the half-maximal inhibitory concentration (IC50) lay within 200 to 500 nM.

In the case of `Cc1cccnc1Nc1nc(-c2ccc(OC3CCN(C4CC4)CC3(F)F)cn2)ns1` (stereo not drawn) [Compound 83, 3-(5-(1-cyclo-propyl-3,3-difluoro-piperidin-4-yloxy)pyridin-2-yl)-N-(3-methylpyridin-2-yl)-1,2,4-thiadiazol-5-amine], under setting [1], the 50% inhibitory concentration (IC50) is 200 to 500 nM.

Regarding `CC(C)Oc1cnc(-c2nsc(Nc3ncccc3C(C)C)n2)cc1C(=O)N(C)C` [Compound 193, 5-isopropoxy-2-(5-(3-isopropylpyridin-2-ylamino)-1,2,4-thiadiazol-3-yl)-N,N-dimethy-lisonicotinamide], the IC50 under setting [1] lay within 200 to 500 nM.

In the case of `CC(C)Oc1ccc(-c2nsc(Nc3ncccc3N3CCCC3)n2)nc1` [Compound 116, 3-(5-isopropoxy-pyridin-2-yl)-N-(3-(pyrrolidin-1-yl)pyridin-2-yl)-1,2,4-thiadiazol-5-amine], the IC50 under setting [1] is less than 200 nM.

As to `CC(=O)N(C)c1cnc(Nc2nc(-c3cc4c(cn3)N(C(C)C)CC4)ns2)c(C(F)(F)F)c1` [Compound 299, N-(6-(3-(1-isopropyl-2,3-dihydro-1H-pyrrolo[2,3-c]pyridin-5-yl)-1,2,4-thiadiazol-5-ylamino)-5-(trifluoromethyl)pyridin-3-yl)-N-methylacetamide], the half-inhibitory concentration (IC50) under setting [2] is less than 200 nM.

For `CC(C)c1cnc(Nc2nc(-c3ccc(OC4CC4)cn3)ns2)cc1C(F)(F)F` [Compound 95, 3-(5-cyclopropoxy-pyridin-2-yl)-N-(5-isopropyl-4-(trifluoromethyl)pyridin-2-yl)-1,2,4-thiadiazol-5-amine], the IC50 under setting [1] is less than 200 nM.

Consider `c1ccc(-c2nsc(Nc3ccc(OC4CCOCC4)cn3)n2)nc1` [Cmpd 9, 3-(pyridin-2-yl)-N-(5-(tetrahydro-2H-pyran-4-yloxy)pyridin-2-yl)-1,2,4-thiadiazol-5-amine], for which the IC50 under setting [1] was 500 to 5000 nM.

With `Cc1cccnc1Nc1nc(-c2ccc(OCC3CC3)cn2)ns1` [Compound 73, 3-(5-(cyclopropyl-methoxy)pyridin-2-yl)-N-(3-methylpyridin-2-yl)-1,2,4-thiadiazol-5-amine], under setting [1], the half-maximal inhibitory concentration (IC50) is less than 200 nM.

In the case of `CC(C)c1cccnc1Nc1nc(-c2ccc(O[C@@H]3CCN(C4CC4)C[C@H]3F)cn2)ns1` [Compound 90, 3-(5-((3R,4R)-1-cyclopropyl-3-fluoro-piperidin-4-yloxy)pyridin-2-yl)-N-(3-isopropylpyridin-2-yl)-1,2,4-thiadiazol-5-amine], the half-inhibitory concentration (IC50) under setting [1] is less than 200 nM.

Take `Cc1ccnc(Nc2nnc(-c3ncccc3C)[nH]2)c1` [Compound 242, 4-methyl-N-(5-(3-methyl-pyridin-2-yl)-4H-1,2,4-triazol-3-yl)pyridin-2-amine]: under setting [2], the 50% inhibitory concentration (IC50) fell in the range of 500 to 5000 nM.

Take `Cc1cccnc1Nc1nc(-c2ccc(OC3CC4(C3)CN(C3CC3)C4)cn2)ns1` [Compound 82, 3-(5-(2-cyclo-propyl-2-azaspiro[3.3]heptan-6-yloxy)pyridin-2-yl)-N-(3-methylpyridin-2-yl)-1,2,4-thiadiazol-5-amine]: the half-maximal inhibitory concentration (IC50) under setting [1] fell in the range of 200 to 500 nM.

Turning to `CC(C)Oc1ccc(-c2noc(Nc3ncccc3N(C)C)n2)nc1` [Compound 133, N2-(3-(5-is-opropoxy-pyridin-2-yl)-1,2,4-oxadiazol-5-yl)-N3,N3-dimethyl-pyridine-2,3-diamine], the IC50 under setting [1] was 500 to 5000 nM.

For `CC(=O)N(C)c1cccnc1Nc1nc(-c2cc3c(cn2)OC(C)(C)C3)ns1` [Compound 271, N-(2-(3-(2,2-dimethyl-2,3-dihydrofuro [2,3-c]pyridin-5-yl)-1,2,4-thiadiazol-5-ylamino)pyridin-3-yl)-N-methylacetamide], the half-inhibitory concentration (IC50) under setting [2] lay within 500 to 5000 nM.

Turning to `O=C(NC1CC(F)(F)C1)c1ccc(Nc2nc(-c3ccc(OC4CC4)cn3)ns2)nc1` [Compound 107, 6-(3-(5-cyclo-propoxypyridin-2-yl)-1,2,4-thiadiazol-5-ylamino)-N-(3,3-difluoro-cyclobutyl) nicotinamide], the IC50 under setting [1] lay within 500 to 5000 nM.

For the molecule `Cc1cccnc1Nc1nc(-c2ccc(OC3CCOCC3)cn2)ns1` [Compound 15, N-(3-methyl-pyridin-2-yl)-3-(5-(tetrahydro-2H-pyran-4-yloxy)pyridin-2-yl)-1,2,4-thiadiazol-5-amine], under setting [1], the IC50 was less than 200 nM.

Turning to `CC(=O)N1CCN(c2ccc(Nc3nc(-c4ccc(OC5CC5)cn4)ns3)nc2)CC1` [Compound 112, 1-(4-(6-(3-(5-cyclopropoxy-pyridin-2-yl)-1,2,4-thiadiazol-5-ylamino)pyridin-3-yl)piperazin-1-yl) ethanone], the 50% inhibitory concentration (IC50) under setting [1] lay in the range of 200 to 500 nM.

In general, IC50 refers to the concentration that inhibits the measured activity by half.
